Test results: patent US6358947B1 (American Home Products Corporation, priority 1999, dated 2002)

Experiments:
Type in all cases: cell-based
[1] = biological target: T1, human PR (Homo sapiens, UniProt P06401); test: Cotransfection assay, PR agonist, CV-1 cells
T1 sequence (P06401 1-933): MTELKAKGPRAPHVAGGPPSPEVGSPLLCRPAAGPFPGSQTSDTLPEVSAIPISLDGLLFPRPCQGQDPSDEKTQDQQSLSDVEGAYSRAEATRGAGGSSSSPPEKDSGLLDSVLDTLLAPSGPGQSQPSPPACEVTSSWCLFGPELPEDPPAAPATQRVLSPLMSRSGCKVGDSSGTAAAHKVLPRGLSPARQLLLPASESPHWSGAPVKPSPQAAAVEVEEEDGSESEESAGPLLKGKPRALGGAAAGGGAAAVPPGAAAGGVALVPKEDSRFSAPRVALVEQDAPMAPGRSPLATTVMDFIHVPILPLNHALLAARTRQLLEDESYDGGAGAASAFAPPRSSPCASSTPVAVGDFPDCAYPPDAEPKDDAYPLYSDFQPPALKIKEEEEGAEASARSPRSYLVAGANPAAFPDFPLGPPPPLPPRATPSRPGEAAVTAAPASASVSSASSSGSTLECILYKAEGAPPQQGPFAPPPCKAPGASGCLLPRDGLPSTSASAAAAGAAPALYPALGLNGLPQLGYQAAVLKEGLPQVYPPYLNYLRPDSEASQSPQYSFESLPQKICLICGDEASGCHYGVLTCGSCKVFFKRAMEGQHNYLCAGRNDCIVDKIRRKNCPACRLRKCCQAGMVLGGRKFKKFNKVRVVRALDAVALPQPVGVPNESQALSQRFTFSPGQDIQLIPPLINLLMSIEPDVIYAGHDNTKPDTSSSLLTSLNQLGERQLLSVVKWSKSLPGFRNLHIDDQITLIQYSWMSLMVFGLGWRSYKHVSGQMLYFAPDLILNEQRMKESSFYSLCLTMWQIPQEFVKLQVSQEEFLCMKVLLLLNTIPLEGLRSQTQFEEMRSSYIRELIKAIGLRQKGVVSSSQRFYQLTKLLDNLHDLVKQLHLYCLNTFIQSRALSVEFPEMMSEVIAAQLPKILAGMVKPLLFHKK
Text: (§1) The cotransfection assay provides a method for identifying functional agonists and partial agonists that mimic, or antagonists that inhibit, the effect of native hormones, and for quantifying their activity for responsive intracellular receptor (IR) proteins. In this regard, the cotransfection assay mimics an in vivo system in the laboratory. Importantly, activity in the cotransfection assay correlates very well with known in vivo activity, such that the cotransfection assay functions as a qualitative and quantitative predictor of a tested compound's in vivo pharmacology.
(§2) In the cotransfection assay, a cloned cDNA for an IR (e.g., human PR, AR or GR) under the control of a constitutive promoter (e.g., the SV 40 promoter) is introduced by transfection (a procedure to induce cells to take up foreign genes) into a background cell substantially devoid of endogenous IRs. This introduced gene directs the recipient cells to make the IR protein of interest. A second gene is also introduced (cotransfected) into the same cells in conjunction with the IR gene. This second gene, comprising the cDNA for a reporter protein, such as firefly luciferase (LUC), is controlled by an appropriate hormone responsive promoter containing a hormone response element (HRE). This reporter plasmid functions as a reporter for the transcription-modulating activity of the target IR. Thus, the reporter acts as a surrogate for the products (mRNA, then protein) normally expressed by a gene under control of the target receptor and its native hormone.
(§3) The cotransfection assay can detect small molecule agonists or antagonists of target IRs. Exposing the transfected cells to an agonist ligand compound increases reporter activity in the transfected cells. This activity can be conveniently measured, e.g., by increasing luciferase production, which reflects compound-dependent, IR-mediated increases in reporter transcription. […] Increasing concentrations of a suspected antagonist will decrease the reporter signal (e.g., luciferase production). The cotransfection assay is therefore useful to detect both agonists and antagonists of specific IRs. Furthermore, it determines not only whether a compound interacts with a particular IR, but whether this interaction mimics (agonizes) or blocks (antagonizes) the effects of the native regulatory molecules on target gene expression, as well as the specificity and strength of this interaction.

[2] = biological target: T1, human PR; test: Cotransfection assay, PR antagonist, CV-1 cells; settings: percent maximal response relative to reference antagonist
Text: as §1, §2, §3

[3] = biological target: T2, hER (Homo sapiens, UniProt P03372); test: Cotransfection assay, ER agonist; settings: read-out: ER Potency Agon
T2 sequence (P03372 1-595): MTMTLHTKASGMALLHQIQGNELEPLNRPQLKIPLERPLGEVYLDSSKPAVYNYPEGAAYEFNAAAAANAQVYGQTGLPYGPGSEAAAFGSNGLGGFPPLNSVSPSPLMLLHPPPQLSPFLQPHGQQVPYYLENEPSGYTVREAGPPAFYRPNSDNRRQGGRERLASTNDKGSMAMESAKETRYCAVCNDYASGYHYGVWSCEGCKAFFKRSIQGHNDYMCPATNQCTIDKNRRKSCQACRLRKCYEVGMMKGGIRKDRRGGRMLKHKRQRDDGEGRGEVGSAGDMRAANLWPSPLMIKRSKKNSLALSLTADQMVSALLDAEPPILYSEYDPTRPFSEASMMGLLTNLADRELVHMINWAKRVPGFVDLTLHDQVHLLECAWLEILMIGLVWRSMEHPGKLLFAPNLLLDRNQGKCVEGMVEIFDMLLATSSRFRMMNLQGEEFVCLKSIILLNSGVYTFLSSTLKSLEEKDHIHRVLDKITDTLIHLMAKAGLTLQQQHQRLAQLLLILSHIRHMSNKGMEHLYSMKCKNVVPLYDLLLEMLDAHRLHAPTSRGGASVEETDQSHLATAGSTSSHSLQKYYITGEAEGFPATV
Text: as §1, §2, §3

[4] = biological target: T3, hGR (Homo sapiens, UniProt P04150); test: Cotransfection assay, GR antagonist; settings: read-out: GR Potency Antag
T3 sequence (P04150 1-777): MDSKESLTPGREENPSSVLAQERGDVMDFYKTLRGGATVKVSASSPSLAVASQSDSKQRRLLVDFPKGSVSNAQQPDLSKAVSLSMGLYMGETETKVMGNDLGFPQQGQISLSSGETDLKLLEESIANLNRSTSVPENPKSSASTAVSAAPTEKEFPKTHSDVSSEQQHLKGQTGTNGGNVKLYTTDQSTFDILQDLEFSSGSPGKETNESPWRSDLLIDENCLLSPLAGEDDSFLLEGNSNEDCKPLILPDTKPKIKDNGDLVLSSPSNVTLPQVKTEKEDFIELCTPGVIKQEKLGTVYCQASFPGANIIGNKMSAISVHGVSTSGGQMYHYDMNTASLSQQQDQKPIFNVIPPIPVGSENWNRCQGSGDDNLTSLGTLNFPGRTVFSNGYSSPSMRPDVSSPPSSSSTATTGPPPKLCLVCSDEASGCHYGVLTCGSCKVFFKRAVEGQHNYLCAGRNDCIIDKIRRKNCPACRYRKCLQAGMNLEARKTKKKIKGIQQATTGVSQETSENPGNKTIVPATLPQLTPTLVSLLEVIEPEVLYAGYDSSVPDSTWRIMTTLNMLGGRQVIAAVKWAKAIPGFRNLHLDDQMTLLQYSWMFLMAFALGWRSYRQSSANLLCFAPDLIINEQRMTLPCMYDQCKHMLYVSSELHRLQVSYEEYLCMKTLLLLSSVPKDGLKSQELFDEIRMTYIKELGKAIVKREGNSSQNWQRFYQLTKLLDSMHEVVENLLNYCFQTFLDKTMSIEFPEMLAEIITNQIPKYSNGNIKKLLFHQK
Text: as §1, §2, §3

[5] = biological target: T2, hER; test: Cotransfection assay, ER antagonist; settings: read-out: ER Potency Antag
Text: as §1, §2, §3

[6] = biological target: T4, hMR (Homo sapiens, UniProt P08235); test: Cotransfection assay, MR antagonist; settings: read-out: MR Potency Antag
T4 sequence (P08235 1-984): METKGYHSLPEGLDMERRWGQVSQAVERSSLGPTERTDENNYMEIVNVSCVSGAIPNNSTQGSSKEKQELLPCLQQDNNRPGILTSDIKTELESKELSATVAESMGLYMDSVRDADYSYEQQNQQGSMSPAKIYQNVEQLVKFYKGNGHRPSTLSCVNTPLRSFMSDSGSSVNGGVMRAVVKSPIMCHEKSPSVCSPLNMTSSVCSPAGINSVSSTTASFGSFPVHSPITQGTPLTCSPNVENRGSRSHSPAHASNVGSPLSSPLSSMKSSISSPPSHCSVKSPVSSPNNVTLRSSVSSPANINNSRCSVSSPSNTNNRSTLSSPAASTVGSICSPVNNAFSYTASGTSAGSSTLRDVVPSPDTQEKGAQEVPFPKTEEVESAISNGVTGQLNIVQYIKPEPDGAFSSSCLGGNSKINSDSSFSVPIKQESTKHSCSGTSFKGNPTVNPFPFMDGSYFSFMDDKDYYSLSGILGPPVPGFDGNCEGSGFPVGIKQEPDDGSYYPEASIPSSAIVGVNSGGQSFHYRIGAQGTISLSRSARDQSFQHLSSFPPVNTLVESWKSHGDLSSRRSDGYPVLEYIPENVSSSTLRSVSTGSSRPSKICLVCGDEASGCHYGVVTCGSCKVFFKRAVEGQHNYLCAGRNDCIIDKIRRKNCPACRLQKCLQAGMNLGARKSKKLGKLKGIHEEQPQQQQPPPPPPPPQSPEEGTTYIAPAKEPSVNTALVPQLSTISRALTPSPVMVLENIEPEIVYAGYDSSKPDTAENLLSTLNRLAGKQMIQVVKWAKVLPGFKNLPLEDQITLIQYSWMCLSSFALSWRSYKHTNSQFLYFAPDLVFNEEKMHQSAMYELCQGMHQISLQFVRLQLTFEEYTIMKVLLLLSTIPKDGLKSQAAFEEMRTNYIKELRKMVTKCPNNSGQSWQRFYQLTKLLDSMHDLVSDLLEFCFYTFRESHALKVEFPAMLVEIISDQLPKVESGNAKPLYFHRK
Text: as §1, §2, §3

CN(C)c1ccc([C@H]2C[C@]3(C)[C@@H](CC[C@]3(O)CCCO)[C@@H]3CCC4=CC(=O)CCC4=C32)cc1 [ZK299, reference compound]
PR Agonist CV-1 Cells Efficacy [1]: na (key: na = not active (i.e. efficacy of <20 and potency of >10,000)) | PR Antagonist CV-1 Cells Efficacy [2]: 99%

CC(=O)S[C@@H]1CC2=CC(=O)CC[C@]2(C)[C@H]2CC[C@@]3(C)[C@@H](CC[C@@]34CCC(=O)O4)[C@H]12 [Spir, reference compound]
EC50 [3]: > 10 µM | IC50 [4]: 2 µM | IC50 [5]: > 10 µM

CC(C)C(=O)Nc1ccc([N+](=O)[O-])c(C(F)(F)F)c1 [Flut, reference compound]
IC50 [6]: > 10 µM | EC50 ([1]; Table 2, read-out: PR Potency Agon): > 10 µM | EC50 [3]: > 10 µM | IC50 [5]: > 10 µM
